# Data reported in EPA's ToxRefDB 2.
# How the values were obtained:
# mouse [1] = details: Carcinogenicity, b6c3f1, Oral, [Not Specified], dose end: 78 week, group: systemic
# rat [2] = details: Subchronic oral toxicity in rodents, wistar, Feed, dose end: 90 day, group: systemic
# rat [3] = details: Carcinogenicity, wistar, Oral, Feed, dose end: 104 week, group: systemic
# rat [4] = details: Chronic toxicity, wistar, Oral, Feed, dose end: 104 week, group: systemic
# dog [5] = details: Chronic toxicity, beagle, Oral, Feed, dose end: 12 month, group: systemic
# dog [6] = details: Subchronic oral toxicity in nonrodent, beagle, Feed, dose end: 90 day, group: systemic
# rabbit [7] = details: Prenatal developmental toxicity study, himalayan, Oral, Gavage/Intubation, dose end: 19 GD
# mouse [8] = details: Subchronic oral toxicity in rodents, b6c3f1, Feed, dose end: 13 week, group: systemic, systemic / in life observation / body weight / body weight
# rat [9] = details: Carcinogenicity; fischer; Oral; Feed; dose end: 103 week; group: systemic; systemic / in life observation / clinical signs / drooping eyelids (ptosis) + systemic / pathology microscopic / adrenal gland / …
# mouse [10] = details: Carcinogenicity, b6c3f1, Oral, Feed, dose end: 103 week, group: systemic
# rabbit [11] = details: Prenatal developmental toxicity study; chinchilla; Oral; Gavage/Intubation; dose end: 18 GD; group: maternal; reproductive / reproductive performance / postimplantation loss / postimplantation loss + systemic / in life observation / body weight / …
# dog [12] = details: Chronic toxicity; beagle; Oral; Feed; dose end: 26 week; group: systemic; systemic / in life observation / body weight / body weight + systemic / clinical chemistry / [other] / [other] + systemic / clinical …
# rat [13] = details: Combined chronic toxicity/carcinogenicity, other, Oral, Feed, dose end: 106 week
# dog [14] = details: Chronic toxicity, beagle, Oral, Feed, dose end: 12 month
# mouse [15] = details: Carcinogenicity, b6c3f1, Oral, Feed, dose end: 24 month, group: systemic
# mouse [16] = details: Carcinogenicity; other; Oral; Feed; dose end: 18 month; group: systemic; systemic / in life observation / body weight / body weight
# mouse [17] = details: Carcinogenicity; other; Oral; Feed; dose end: 18 month; group: systemic; systemic / in life observation / body weight / body weight; remark: listed apart in the source
# rat [18] = details: Combined chronic toxicity/carcinogenicity, other, Oral, Feed, dose end: 24 month, group: systemic
# rabbit [19] = details: Prenatal developmental toxicity study, new zealand white, Oral, Capsule, dose end: 18 GD
# rat [20] = details: Multigenerational reproductive toxicity study, sprague dawley, Oral, Feed, dose end: 2 generation
# rabbit [21] = details: Prenatal developmental toxicity study, new zealand white, Oral, Capsule, dose end: 18 GD; remark: listed apart in the source
# rat [22] = details: Peri- and post-natal toxicity study (Segment III), sprague dawley, Oral, Gavage/Intubation, dose end: 54 PND
# rat [23] = details: Other (NonGuideline or Guideline Not Listed), sprague dawley, Oral, Gavage/Intubation, dose end: 20 PND, group: cannot be grouped
# [24] = systemic / organ weight / kidney / absolute
# [25] = systemic / clinical chemistry / albumin / albumin + systemic / clinical chemistry / protein / protein
# [26] = systemic / organ weight / liver / absolute + systemic / organ weight / liver / relative to body weight + systemic / pathology microscopic / …
# [27] = systemic / pathology gross / lymph node / enlarged + systemic / pathology gross / spleen / enlarged + systemic / pathology microscopic / …
# [28] = systemic / clinical chemistry / cholesterol / cholesterol
# [29] = systemic / clinical chemistry / cholesterol / cholesterol + systemic / in life observation / body weight / body weight + systemic / in life …
# [30] = systemic / organ weight / liver / relative to body weight + systemic / pathology microscopic / liver / hemosiderosis + systemic / clinical …
# [31] = systemic / organ weight / liver / relative to body weight + systemic / pathology microscopic / spleen / hemosiderosis + systemic / …
# [32] = group: developmental, developmental / developmental malformation / bone / full supernumerary + developmental / developmental malformation / bone / fused + …
# [33] = group: maternal, systemic / in life observation / body weight / body weight gain + systemic / in life observation / food consumption / food efficiency + …
# [34] = systemic / in life observation / body weight / body weight
# [35] = systemic / in life observation / body weight / body weight + systemic / pathology microscopic / mammary gland / mixed tumor malignant + …
# [36] = group: cholinesterase, cholinesterase / cholinesterase / cholinesterase / plasma cholinesterase (che) + cholinesterase / cholinesterase / cholinesterase / …
# [37] = group: systemic, systemic / in life observation / body weight / body weight + systemic / in life observation / food consumption / food consumption
# [38] = group: systemic, systemic / in life observation / body weight / body weight + systemic / in life observation / food consumption / food consumption + systemic…
# [39] = group: cholinesterase, cholinesterase / cholinesterase / cholinesterase / erythrocyte cholinesterase (che) + cholinesterase / cholinesterase / cholinesterase / …
# [40] = group: systemic, systemic / clinical chemistry / cholesterol / cholesterol
# [41] = group: systemic, systemic / clinical chemistry / cholesterol / cholesterol + systemic / in life observation / clinical signs / vomitting
# [42] = systemic / clinical chemistry / alanine aminotransferase (alt/sgpt) / alanine aminotransferase (alt/sgpt) + systemic / organ weight / liver…
# [43] = systemic / clinical chemistry / protein / protein
# [44] = systemic / organ weight / kidney / absolute + systemic / organ weight / kidney / relative to body weight
# [45] = group: developmental, systemic / in life observation / body weight / fetal weight
# [46] = group: maternal, systemic / in life observation / clinical signs / anorexia + systemic / in life observation / clinical signs / no feces + systemic / in life…
# [47] = group: offspring, systemic / in life observation / body weight / offspring (pup) weight + systemic / in life observation / body weight / offspring (pup) …
# [48] = group: parental, systemic / in life observation / body weight / body weight + systemic / in life observation / body weight / body weight gain + systemic / in…
# [49] = group: parental, systemic / in life observation / body weight / body weight gain
# [50] = group: maternal, systemic / in life observation / clinical signs / anorexia + systemic / pathology gross / stomach / fluid contents + systemic / pathology …
# [51] = group: developmental, developmental / developmental landmark / preputial separation / preputial separation
# [52] = group: parental, systemic / organ weight / [other] / absolute + systemic / organ weight / adrenal gland / absolute + systemic / organ weight / epididymis / …
# [53] = developmental / developmental landmark / preputial separation / preputial separation
# [54] = developmental / developmental malformation / general / [other] + developmental / developmental malformation / penis / [other] + …
structure (smiles),measurement,setting,value
CN1CSC(=S)N(C)C1 [Dazomet],LEL,mouse [1]; [24],3.9 mg/kg/day
same,NEL,mouse [1]; [24],< 3.9 mg/kg/day
same,LOAEL,mouse [1]; systemic / pathology microscopic / liver / adenoma,15.6 mg/kg/day
same,NOAEL,mouse [1]; systemic / pathology microscopic / liver / adenoma + systemic / in life observation / body weight / body weight + systemic / in life …,3.9 mg/kg/day
same,LEL,rat [2]; [25],1.7 mg/kg/day
same,NEL,rat [2]; [25],< 1.7 mg/kg/day
same,LOAEL,rat [2]; [26],4.5 mg/kg/day
same,NOAEL,rat [2]; [26],1.5 mg/kg/day
same,LEL,rat [3]; systemic / pathology gross / lymph node / enlarged + systemic / pathology gross / spleen / enlarged,0.9 mg/kg/day
same,LOAEL,rat [3]; [27],> 3.71 mg/kg/day
same,NEL,rat [3]; [27],0.2 mg/kg/day
same,NOAEL,rat [3]; [27],≥ 3.71 mg/kg/day
same,LEL,rat [4]; [28],3.81 mg/kg/day
same,LOAEL,rat [4]; [28],3.81 mg/kg/day
same,NEL,rat [4]; [29],0.94 mg/kg/day
same,NOAEL,rat [4]; [29],0.94 mg/kg/day
same,LOAEL,dog [5]; systemic / organ weight / liver / relative to body weight + systemic / pathology microscopic / liver / hemosiderosis,1.12 mg/kg/day
same,LEL,dog [5]; [30],1.12 mg/kg/day
same,NEL,dog [5]; [30],0.35 mg/kg/day
same,NOAEL,dog [5]; [30],0.35 mg/kg/day
same,LOAEL,dog [6]; systemic / organ weight / liver / relative to body weight + systemic / pathology microscopic / spleen / hemosiderosis,7.25 mg/kg/day
same,LEL,dog [6]; [31],7.25 mg/kg/day
same,NEL,dog [6]; [31],3.5 mg/kg/day
same,NOAEL,dog [6]; [31],3.5 mg/kg/day
same,LEL,rabbit [7]; [32],45 mg/kg/day
same,LOAEL,rabbit [7]; [32],45 mg/kg/day
same,NEL,rabbit [7]; [32],15 mg/kg/day
same,NOAEL,rabbit [7]; [32],15 mg/kg/day
same,LOAEL,"rabbit [7]; group: maternal, systemic / in life observation / body weight / body weight gain + systemic / in life observation / food consumption / food efficiency",45 mg/kg/day
same,LEL,rabbit [7]; [33],45 mg/kg/day
same,NEL,rabbit [7]; [33],15 mg/kg/day
same,NOAEL,rabbit [7]; [33],15 mg/kg/day
COC(=O)[C@H]1[C@H]2C[C@@H]3c4[nH]c5cc(OC)ccc5c4CCN3C[C@H]2C[C@@H](OC(=O)c2cc(OC)c(OC)c(OC)c2)[C@@H]1OC [Reserpine],LEL,mouse [8],0.06 mg/kg/day
same,LOAEL,mouse [8],0.225 mg/kg/day
same,NEL,mouse [8],< 0.06 mg/kg/day
same,NOAEL,mouse [8],0.12 mg/kg/day
same,LEL,rat [9],0.25 mg/kg/day
same,LOAEL,rat [9],> 0.5 mg/kg/day
same,NEL,rat [9],< 0.25 mg/kg/day
same,NOAEL,rat [9],≥ 0.5 mg/kg/day
same,LOAEL,mouse [10]; [34],0.75 mg/kg/day
same,NOAEL,mouse [10]; [34],< 0.75 mg/kg/day
same,LEL,mouse [10]; [35],0.75 mg/kg/day
same,NEL,mouse [10]; [35],< 0.75 mg/kg/day
CNC(=O)Oc1ccccc1OC(C)C [Propoxur],LEL,rabbit [11],30 mg/kg/day
same,LOAEL,rabbit [11],30 mg/kg/day
same,NEL,rabbit [11],10 mg/kg/day
same,NOAEL,rabbit [11],10 mg/kg/day
same,LEL,dog [12],1.75 mg/kg/day
same,LOAEL,dog [12],> 1.75 mg/kg/day
same,NEL,dog [12],< 1.75 mg/kg/day
same,NOAEL,dog [12],≥ 1.75 mg/kg/day
same,NEL,"rat [13]; group: cholinesterase, cholinesterase / cholinesterase / cholinesterase / plasma cholinesterase (che)",50 mg/kg/day
same,LEL,rat [13]; [36],250 mg/kg/day
same,LOAEL,rat [13]; [36],> 250 mg/kg/day
same,NOAEL,rat [13]; [36],≥ 250 mg/kg/day
same,LEL,rat [13]; [37],10 mg/kg/day
same,NEL,rat [13]; [37],< 10 mg/kg/day
same,LOAEL,rat [13]; [38],250 mg/kg/day
same,NOAEL,rat [13]; [38],50 mg/kg/day
same,LEL,dog [14]; [39],781 mg/kg/day
same,LOAEL,dog [14]; [39],> 781 mg/kg/day
same,NEL,dog [14]; [39],186 mg/kg/day
same,NOAEL,dog [14]; [39],≥ 781 mg/kg/day
same,LOAEL,dog [14]; [40],62.4 mg/kg/day
same,NOAEL,dog [14]; [40],< 62.4 mg/kg/day
same,LEL,dog [14]; [41],62.4 mg/kg/day
same,NEL,dog [14]; [41],< 62.4 mg/kg/day
same,LOAEL,mouse [15]; [42],472 mg/kg/day
same,NOAEL,mouse [15]; [42],114 mg/kg/day
same,LEL,mouse [15]; [43],150 mg/kg/day
same,NEL,mouse [15]; [43],< 150 mg/kg/day
CC(C)([CH2][Sn]([CH2]C(C)(C)c1ccccc1)([CH2]C(C)(C)c1ccccc1)[O][Sn]([CH2]C(C)(C)c1ccccc1)([CH2]C(C)(C)c1ccccc1)[CH2]C(C)(C)c1ccccc1)c1ccccc1 [Fenbutatin oxide],LEL,mouse [16],45 mg/kg/day
same,LOAEL,mouse [16],45 mg/kg/day
same,NEL,mouse [16],15 mg/kg/day
same,NOAEL,mouse [16],15 mg/kg/day
same,LEL,mouse [17],45 mg/kg/day
same,LOAEL,mouse [17],45 mg/kg/day
same,NEL,mouse [17],15 mg/kg/day
same,NOAEL,mouse [17],15 mg/kg/day
same,LOAEL,rat [18]; systemic / clinical chemistry / alkaline phosphatase (alp/alk) / alkaline phosphatase (alp/alk),15 mg/kg/day
same,NOAEL,rat [18]; systemic / clinical chemistry / alkaline phosphatase (alp/alk) / alkaline phosphatase (alp/alk) + systemic / clinical chemistry / urea …,5 mg/kg/day
same,LEL,rat [18]; [44],2.5 mg/kg/day
same,NEL,rat [18]; [44],< 2.5 mg/kg/day
same,LEL,rabbit [19]; [45],10 mg/kg/day
same,LOAEL,rabbit [19]; [45],10 mg/kg/day
same,NEL,rabbit [19]; [45],5 mg/kg/day
same,NOAEL,rabbit [19]; [45],5 mg/kg/day
same,LEL,rabbit [19]; [46],5 mg/kg/day
same,LOAEL,rabbit [19]; [46],5 mg/kg/day
same,NEL,rabbit [19]; [46],1 mg/kg/day
same,NOAEL,rabbit [19]; [46],1 mg/kg/day
same,LEL,"rat [20]; group: offspring, systemic / in life observation / body weight / offspring (pup) weight",5.92 mg/kg/day
same,LOAEL,rat [20]; [47],17.4 mg/kg/day
same,NEL,rat [20]; [47],3.18 mg/kg/day
same,NOAEL,rat [20]; [47],5.2 mg/kg/day
same,LOAEL,rat [20]; [48],30 mg/kg/day
same,NOAEL,rat [20]; [48],14.8 mg/kg/day
same,LEL,rat [20]; [49],2.39 mg/kg/day
same,NEL,rat [20]; [49],< 2.39 mg/kg/day
same,LEL,rabbit [21]; [45],10 mg/kg/day
same,LOAEL,rabbit [21]; [45],10 mg/kg/day
same,NEL,rabbit [21]; [45],5 mg/kg/day
same,NOAEL,rabbit [21]; [45],5 mg/kg/day
same,LEL,rabbit [21]; [50],5 mg/kg/day
same,LOAEL,rabbit [21]; [50],5 mg/kg/day
same,NEL,rabbit [21]; [50],1 mg/kg/day
same,NOAEL,rabbit [21]; [50],1 mg/kg/day
CC(C)C(=O)Nc1ccc([N+](=O)[O-])c(C(F)(F)F)c1 [Flutamide],LEL,rat [22]; [51],25 mg/kg/day
same,LOAEL,rat [22]; [51],> 50 mg/kg/day
same,NEL,rat [22]; [51],< 25 mg/kg/day
same,NOAEL,rat [22]; [51],≥ 50 mg/kg/day
same,LEL,rat [22]; [52],25 mg/kg/day
same,LOAEL,rat [22]; [52],> 50 mg/kg/day
same,NEL,rat [22]; [52],< 25 mg/kg/day
same,NOAEL,rat [22]; [52],≥ 50 mg/kg/day
same,LEL,rat [23]; [53],0.4 mg/kg/day
same,NEL,rat [23]; [53],< 0.4 mg/kg/day
same,LOAEL,rat [23]; [54],> 10 mg/kg/day
same,NOAEL,rat [23]; [54],≥ 10 mg/kg/day
